Entries after “also recorded” stand apart in the source; their conditions may differ.
Assays:
[1] = target: T1, α-Glucosidase from Saccharomyces cerevisiae (EC 3.2.1.20) (Saccharomyces cerevisiae, UniProt P53341); assay: α-Glucosidase inhibition efficiency test (PNPG substrate, absorbance at 405 nm); assay type: biochemical; details: 0.1 U/mL enzyme, 1 mmol/L PNPG, 37°C, triplicate mean; read-out: IC50 against α-glucosidase
T1 construct: purchased Sigma-Aldrich
Protocol: All chemicals and solvents were obtained from commercial suppliers without further purification. α-Glucosidase from Saccharomyces cerevisiae (EC 3.2.1.20) was purchased from Sigma-Aldrich. p-Nitrophenyl-α-D-galactopyranoside (PNPG) was obtained from Abcam.
Stock solutions of testing compounds were prepared in DMSO. Enzyme solution of α-glucosidase (2 U/mL) was prepared in 0.1 M PBS buffer. Nitrophenol-α-D-glucoside (PNPG) was dissolved in 0.1 M PBS buffer (pH 6.8) to obtain the substrate solution (4 mM). In total, 10 μL of α-glucosidase (final concentration 0.1 U/mL), 130 μL of PBS buffer, and 10 μL of the sample solution were added into 96-well plates in succession and incubated at 37°C for 10 min. Then 50 μL of substrate solution (PNPG final concentration 1 mmol/L) was added, followed by incubation at 37°C for another 30 min. The enzymatic activity was quantified by measuring the absorbance of the reaction mixture at 405 nm using a multimodel reader. The inhibition rate was calculated using the following equation: Inhibition rate (%) = [(A1−A0)/A0] × 100%, where A1 and A0 are the absorbance values of testing samples and blank control, respectively. The IC50 value was obtained from a plot of the inhibition rate versus the sample concentration curve. The assays were carried out in triplicate and the mean values were given.

α-glucosidase [2] = target: T2, α-glucosidase (Saccharomyces cerevisiae, UniProt P53341); assay: Fluorescence titration of the probes with α-glucosidase; assay type: binding; details: for increase of maximum emission intensity on addition of α-glucosidase: 3.5 μM α-glucosidase, PBS buffer
T2 construct: purchased Sigma-Aldrich
T2 sequence (P53341 whole entry): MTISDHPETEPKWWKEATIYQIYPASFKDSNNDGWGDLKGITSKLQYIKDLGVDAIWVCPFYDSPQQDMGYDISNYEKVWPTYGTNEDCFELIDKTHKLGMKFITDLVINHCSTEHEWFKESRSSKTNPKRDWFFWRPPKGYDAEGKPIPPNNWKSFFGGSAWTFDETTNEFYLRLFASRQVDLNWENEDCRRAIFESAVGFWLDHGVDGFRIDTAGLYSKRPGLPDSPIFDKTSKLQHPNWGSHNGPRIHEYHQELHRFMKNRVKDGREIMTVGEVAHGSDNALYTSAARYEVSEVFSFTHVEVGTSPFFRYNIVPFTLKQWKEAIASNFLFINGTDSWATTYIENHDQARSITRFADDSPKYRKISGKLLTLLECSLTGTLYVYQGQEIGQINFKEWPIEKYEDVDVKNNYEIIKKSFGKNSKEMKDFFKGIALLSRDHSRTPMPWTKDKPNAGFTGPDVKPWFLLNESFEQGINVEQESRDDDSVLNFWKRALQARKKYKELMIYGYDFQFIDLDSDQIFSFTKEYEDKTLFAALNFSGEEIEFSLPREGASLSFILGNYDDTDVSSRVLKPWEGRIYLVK
Protocol: (§1) All chemicals and solvents were obtained from commercial suppliers without further purification. α-Glucosidase from Saccharomyces cerevisiae (EC 3.2.1.20) was purchased from Sigma-Aldrich. p-Nitrophenyl-α-D-[…] (PNPG) was obtained from Abcam. Nuclear magnetic resonance (NMR) spectra of new compounds were recorded in DMSO-d 6 using a Bruker Advance 500 MHz spectrometer. High-resolution mass spectrometry (HRMS) was measured on a Thermo Fisher Scientific Q Exactive Orbitrap mass spectrometer. UV–Vis absorption spectra were measured using an Hitachi 3,900 absorption spectrophotometer (Tokyo, Japan). Fluorescence spectra were recorded using an Edinburgh FLS1000 fluorescence spectrophotometer (Edinburgh, UK).
α-Glucosidase protein was titrated to the solution of the testing probe (LD01 or LD02) (10 μM), and the fluorescence emission spectra were recorded from 380 to 700 nm under excitation of 365 nm. The binding constants of Ka were obtained from a double logarithm regression curve ([Wei et al., 2010]): 1g[(I−Io)/Io] = 1gKa + n 1g[G],
where I and I0 are the current and initial fluorescence intensity, respectively, K a is the binding constant, n is the number of binding sites for each α-glucosidase, and [G] is the total concentration of the α-glucosidase protein.

α-glucosidase [3] = target: T2, α-glucosidase; assay: Fluorescence competitive binding assay against α-glucosidase/LD02 complex
Protocol: as §1
The binding complexes of α-glucosidase with LD02 were prepared by adding α-glucosidase (final concentration = 3.5 μM) to the solution of LD02 (10 μM) in 10 mM PBS buffer (pH = 7.4). The dissociation constant of a competitor to α-glucosidase can be determined by titrating it against binding complexes of α-glucosidase with LD02, and can be calculated according to the Cheng–Prusoff equation ([Cheng and Prusoff, 1973]).

[4] = pH-dependent emission (pKa by Henderson-Hasselbalch equation); assay type: physicochemical; details: from emission spectra in PBS buffer pH 3.0 to 8.0, room temperature
Protocol: The emission spectra of the probes in PBS buffer (pH from 3.0 to 8.0) were determined at room temperature. The pKa value was calculated using the Henderson–Hosslbalch equation ([Finikova et al., 2003]): pH = pKa + lg ([A]/[HA]).

[5] = tested on: glucose oxidase (GOD), polyphenol oxidase (TKY), pepsin (PEP), Cys, GSH, Lys, Ca2+, Cu2+, Fe3+, Mg2+, Zn2+; assay: Binding selectivity of LD02: emission in the presence of potential competitors; details: 10 μM LD02; enzymes 3.5 μM, small molecules and ions 1 mM; 10 mM PBS pH 7.4
Protocol: To verify the binding specificity of LD02 toward α-glucosidase, emission spectra of LD02 in the presence of α-glucosidase or various potential competitors such as other enzymes (including glucose oxidase (GOD), polyphenol oxidase (TKY), and pepsin (PEP)), and small molecules of interest (including Cys, GSH, Lys, Ca^2+, Cu^2+, Fe^3+, Mg^2+, and Zn^2+), were collected in 10 mM PBS buffer (pH = 7.4) at room temperature.
FIGURE 5 (A) Fluorescence spectra of LD02 (10 μM) in the presence of various species: α-glucosidase (α-Glu) (3.5 μM), GOD (3.5 μM), TKY (3.5 μM), PEP (3.5 μM), Cys (1 mM), GSH (1 mM), Lys (1 mM), Ca^2+ (1 mM), Cu^2+ (1 mM), Fe^3+ (1 mM), Mg^2+ (1 mM), and Zn^2+ (1 mM) in PBS buffer. (B) The plot of (I-I0)/I0 in A (λex = 365 nm, λem = 457 nm).

T1 sequence (P53341 whole entry): as above

Structure (SMILES)	IC50 [1]	increase of maximum emission intensity on addition of α-glucosidase (α-glucosidase [2]; 10 μM probe)	Kd (α-glucosidase [3])	pKa [4]	Kd (α-glucosidase [2])	binding ratio (n, number of binding sites) to α-glucosidase (α-glucosidase [2]; double logarithm regression, 10 μM probe, PBS)	effect of potential competitors on emission band and intensity (selectivity toward α-glucosidase) [5]
CCN(CC)c1ccc2cc(/C(C)=N/OC(=O)/C=C/c3ccc(Br)cc3)c(=O)oc2c1 [LD01]	4.6 ± 0.5 µM	no obvious emission changes; also recorded: does not have such changes	6.31 µM	4.2			
C/C(=N\OC(=O)/C=C/c1ccc(N(C)C)cc1)c1cc2ccccc2oc1=O [LD02]	32.5 ± 0.8 µM	2.7 times		4.6	158 µM	approximately 0.5	no obvious effect
